Experimental data reported in the kinase profiling compilation of Christmann-Franck et al. (2016).

Experiments:
Assay in all cases: KINOMEscan competition binding
[1] = test system: EGFR (human), P00533 [747-751 del / S ins]; details: compound 10.0 µM
[2] = target: PIP4K2B (human) (UniProt P78356); details: compound 10.0 µM
[3] = target: MAP3K10 (human) (UniProt Q02779); details: compound 10.0 µM
[4] = target: ICK (human) (UniProt Q9UPZ9); details: compound 10.0 µM
[5] = target: STK32B (human) (UniProt Q9NY57); details: compound 10.0 µM
[6] = target: AURKA (human) (UniProt O14965)
[7] = test system: KIT (human), P10721 [D816H]; details: compound 10.0 µM
[8] = target: CDK4 CCND3 (human) (UniProt P11802+P30281); details: compound 10.0 µM
[9] = target: AURKB (human) (UniProt Q96GD4); details: compound 10.0 µM
[10] = target: EPHA1 (human) (UniProt P21709); details: compound 10.0 µM
[11] = target: TAOK2 (human) (UniProt Q9UL54); details: compound 10.0 µM
[12] = target: CSNK1E (human) (UniProt P49674); details: compound 10.0 µM
[13] = target: PIK3CD (human) (UniProt O00329); details: compound 10.0 µM
[14] = target: MAPK11 (human) (UniProt Q15759); details: compound 10.0 µM
[15] = target: SRPK2 (human) (UniProt P78362); details: compound 10.0 µM
[16] = target: JAK1 JH1 catalytic (human) (UniProt P23458); details: compound 10.0 µM
[17] = target: PIP5K1C (human) (UniProt O60331); details: compound 10.0 µM
[18] = target: MINK1 (human) (UniProt Q8N4C8); details: compound 10.0 µM
[19] = target: PAK7 (human) (UniProt Q9P286); details: compound 10.0 µM
[20] = target: PKN1 (human) (UniProt Q16512); details: compound 10.0 µM
[21] = target: BMPR1A (human) (UniProt P36894); details: compound 10.0 µM
[22] = target: CSNK1A1 (human) (UniProt P48729); details: compound 10.0 µM
[23] = target: DYRK1A (human) (UniProt Q13627); details: compound 10.0 µM
[24] = target: ROCK1 (human) (UniProt Q13464); details: compound 10.0 µM
[25] = target: ITK (human) (UniProt Q08881); details: compound 10.0 µM
[26] = target: JAK2 JH1 catalytic (human) (UniProt O60674); details: compound 10.0 µM
[27] = target: MAK (human) (UniProt P20794); details: compound 10.0 µM
[28] = target: RPS6KA2 KD2 (human) (UniProt Q15349)
[29] = target: CDK2 (human) (UniProt P24941); details: compound 10.0 µM
[30] = test system: EGFR (human), P00533 [752-759 del]; details: compound 10.0 µM
[31] = target: EPHB4 (human) (UniProt P54760); details: compound 10.0 µM
[32] = target: SYK (human) (UniProt P43405); details: compound 10.0 µM
[33] = target: PRKCI (human) (UniProt P41743); details: compound 10.0 µM
[34] = target: CAMK2D (human) (UniProt Q13557); details: compound 10.0 µM
[35] = target: GRK4 (human) (UniProt P32298); details: compound 10.0 µM
[36] = target: MAPK3 (human) (UniProt P27361); details: compound 10.0 µM
[37] = test system: EGFR (human), P00533 [G719C]; details: compound 10.0 µM
[38] = test system: PIK3CA (human), P42336 [M1043I]; details: compound 10.0 µM
[39] = test system: PIK3CA (human), P42336 [Q546K]; details: compound 10.0 µM
[40] = target: DSTYK (human) (UniProt Q6XUX3); details: compound 10.0 µM

Sequence of RPS6KA2 KD2 (human) (Q15349 whole entry, looked up): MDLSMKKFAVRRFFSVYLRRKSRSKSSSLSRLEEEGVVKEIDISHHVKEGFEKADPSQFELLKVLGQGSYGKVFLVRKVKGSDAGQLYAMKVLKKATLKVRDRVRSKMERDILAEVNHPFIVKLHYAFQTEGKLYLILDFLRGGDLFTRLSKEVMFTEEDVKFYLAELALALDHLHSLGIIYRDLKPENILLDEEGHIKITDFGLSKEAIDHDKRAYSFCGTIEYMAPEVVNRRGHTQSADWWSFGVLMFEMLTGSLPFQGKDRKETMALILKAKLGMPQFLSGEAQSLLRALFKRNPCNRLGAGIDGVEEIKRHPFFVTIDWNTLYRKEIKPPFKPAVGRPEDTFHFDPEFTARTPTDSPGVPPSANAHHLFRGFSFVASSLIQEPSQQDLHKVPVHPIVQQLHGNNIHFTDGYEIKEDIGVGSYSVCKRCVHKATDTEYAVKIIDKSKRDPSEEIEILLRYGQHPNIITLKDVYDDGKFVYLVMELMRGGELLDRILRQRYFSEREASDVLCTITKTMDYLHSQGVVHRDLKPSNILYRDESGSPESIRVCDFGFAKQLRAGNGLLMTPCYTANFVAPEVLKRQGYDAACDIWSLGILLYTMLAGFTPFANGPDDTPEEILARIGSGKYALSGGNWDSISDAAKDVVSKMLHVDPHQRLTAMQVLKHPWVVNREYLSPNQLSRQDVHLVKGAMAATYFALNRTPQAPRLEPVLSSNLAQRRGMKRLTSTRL
Sequence of AURKA (human) (O14965 whole entry, looked up): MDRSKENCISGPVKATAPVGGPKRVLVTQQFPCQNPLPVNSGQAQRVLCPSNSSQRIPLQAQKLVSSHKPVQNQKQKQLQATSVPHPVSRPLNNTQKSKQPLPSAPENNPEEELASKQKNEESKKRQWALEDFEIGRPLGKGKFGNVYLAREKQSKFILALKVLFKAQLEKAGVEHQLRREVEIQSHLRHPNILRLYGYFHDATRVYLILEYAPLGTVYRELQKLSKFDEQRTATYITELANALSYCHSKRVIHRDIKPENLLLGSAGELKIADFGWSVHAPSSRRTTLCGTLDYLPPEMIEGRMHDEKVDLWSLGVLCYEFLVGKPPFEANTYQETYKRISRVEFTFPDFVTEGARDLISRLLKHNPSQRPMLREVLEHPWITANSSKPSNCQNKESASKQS
Sequence of PKN1 (human) (Q16512 whole entry, looked up): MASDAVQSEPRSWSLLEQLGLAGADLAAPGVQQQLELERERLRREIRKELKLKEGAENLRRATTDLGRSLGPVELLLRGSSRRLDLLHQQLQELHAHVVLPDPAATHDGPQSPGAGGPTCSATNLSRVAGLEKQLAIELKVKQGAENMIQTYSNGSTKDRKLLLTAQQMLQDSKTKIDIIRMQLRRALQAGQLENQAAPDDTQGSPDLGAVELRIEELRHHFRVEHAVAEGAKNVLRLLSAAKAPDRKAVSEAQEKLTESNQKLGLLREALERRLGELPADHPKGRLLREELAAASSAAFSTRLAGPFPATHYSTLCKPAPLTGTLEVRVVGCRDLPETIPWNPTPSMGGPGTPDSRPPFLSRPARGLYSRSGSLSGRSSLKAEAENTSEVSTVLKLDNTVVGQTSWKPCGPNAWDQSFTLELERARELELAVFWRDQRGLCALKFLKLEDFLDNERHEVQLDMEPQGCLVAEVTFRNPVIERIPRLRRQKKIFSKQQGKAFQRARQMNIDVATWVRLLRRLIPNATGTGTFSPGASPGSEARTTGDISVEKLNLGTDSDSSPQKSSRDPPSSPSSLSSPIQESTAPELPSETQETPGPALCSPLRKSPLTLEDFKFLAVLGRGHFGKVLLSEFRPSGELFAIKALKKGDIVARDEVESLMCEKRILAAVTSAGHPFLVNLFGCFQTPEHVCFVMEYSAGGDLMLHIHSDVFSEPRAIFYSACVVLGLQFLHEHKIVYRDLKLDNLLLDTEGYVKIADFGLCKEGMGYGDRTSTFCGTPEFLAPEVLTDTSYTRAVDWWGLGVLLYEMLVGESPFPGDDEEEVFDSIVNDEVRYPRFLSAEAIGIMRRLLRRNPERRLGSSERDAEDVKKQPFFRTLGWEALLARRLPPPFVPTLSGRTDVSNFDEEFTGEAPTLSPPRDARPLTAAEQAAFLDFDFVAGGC
Sequence of PIP5K1C (human) (O60331 whole entry, looked up): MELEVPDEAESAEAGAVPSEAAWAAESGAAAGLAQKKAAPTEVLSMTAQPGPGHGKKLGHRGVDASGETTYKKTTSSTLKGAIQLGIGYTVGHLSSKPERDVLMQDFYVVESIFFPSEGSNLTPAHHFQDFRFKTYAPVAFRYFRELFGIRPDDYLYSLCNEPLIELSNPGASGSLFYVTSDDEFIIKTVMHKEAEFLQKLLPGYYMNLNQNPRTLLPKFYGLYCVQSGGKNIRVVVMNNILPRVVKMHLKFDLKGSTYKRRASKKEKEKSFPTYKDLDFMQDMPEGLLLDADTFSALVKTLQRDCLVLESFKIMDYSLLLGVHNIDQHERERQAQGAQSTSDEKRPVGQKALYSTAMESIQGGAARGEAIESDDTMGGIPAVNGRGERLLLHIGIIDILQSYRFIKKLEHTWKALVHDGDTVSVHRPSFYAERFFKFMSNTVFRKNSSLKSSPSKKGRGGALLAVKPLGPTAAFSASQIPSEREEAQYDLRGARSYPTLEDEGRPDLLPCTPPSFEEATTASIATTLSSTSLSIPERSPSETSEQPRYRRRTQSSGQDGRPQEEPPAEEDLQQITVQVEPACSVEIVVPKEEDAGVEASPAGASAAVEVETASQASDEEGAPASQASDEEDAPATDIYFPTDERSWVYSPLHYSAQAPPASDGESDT
Sequence of PRKCI (human) (P41743 whole entry, looked up): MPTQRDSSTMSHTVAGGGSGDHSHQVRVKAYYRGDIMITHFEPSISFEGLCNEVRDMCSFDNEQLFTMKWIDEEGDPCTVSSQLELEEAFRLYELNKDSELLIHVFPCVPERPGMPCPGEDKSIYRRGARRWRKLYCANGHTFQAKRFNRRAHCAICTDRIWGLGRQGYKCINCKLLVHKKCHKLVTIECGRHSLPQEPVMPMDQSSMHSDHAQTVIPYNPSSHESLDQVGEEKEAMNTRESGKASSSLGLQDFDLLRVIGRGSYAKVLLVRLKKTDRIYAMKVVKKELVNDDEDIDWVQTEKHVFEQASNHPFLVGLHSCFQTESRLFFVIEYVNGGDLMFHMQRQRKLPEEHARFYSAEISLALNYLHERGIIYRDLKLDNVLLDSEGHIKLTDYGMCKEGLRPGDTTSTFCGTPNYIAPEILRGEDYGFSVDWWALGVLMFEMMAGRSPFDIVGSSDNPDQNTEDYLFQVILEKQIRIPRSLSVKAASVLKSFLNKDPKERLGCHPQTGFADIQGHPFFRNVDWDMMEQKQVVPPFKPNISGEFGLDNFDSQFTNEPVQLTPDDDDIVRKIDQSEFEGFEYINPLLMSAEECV
Sequence of EPHA1 (human) (P21709 whole entry, looked up): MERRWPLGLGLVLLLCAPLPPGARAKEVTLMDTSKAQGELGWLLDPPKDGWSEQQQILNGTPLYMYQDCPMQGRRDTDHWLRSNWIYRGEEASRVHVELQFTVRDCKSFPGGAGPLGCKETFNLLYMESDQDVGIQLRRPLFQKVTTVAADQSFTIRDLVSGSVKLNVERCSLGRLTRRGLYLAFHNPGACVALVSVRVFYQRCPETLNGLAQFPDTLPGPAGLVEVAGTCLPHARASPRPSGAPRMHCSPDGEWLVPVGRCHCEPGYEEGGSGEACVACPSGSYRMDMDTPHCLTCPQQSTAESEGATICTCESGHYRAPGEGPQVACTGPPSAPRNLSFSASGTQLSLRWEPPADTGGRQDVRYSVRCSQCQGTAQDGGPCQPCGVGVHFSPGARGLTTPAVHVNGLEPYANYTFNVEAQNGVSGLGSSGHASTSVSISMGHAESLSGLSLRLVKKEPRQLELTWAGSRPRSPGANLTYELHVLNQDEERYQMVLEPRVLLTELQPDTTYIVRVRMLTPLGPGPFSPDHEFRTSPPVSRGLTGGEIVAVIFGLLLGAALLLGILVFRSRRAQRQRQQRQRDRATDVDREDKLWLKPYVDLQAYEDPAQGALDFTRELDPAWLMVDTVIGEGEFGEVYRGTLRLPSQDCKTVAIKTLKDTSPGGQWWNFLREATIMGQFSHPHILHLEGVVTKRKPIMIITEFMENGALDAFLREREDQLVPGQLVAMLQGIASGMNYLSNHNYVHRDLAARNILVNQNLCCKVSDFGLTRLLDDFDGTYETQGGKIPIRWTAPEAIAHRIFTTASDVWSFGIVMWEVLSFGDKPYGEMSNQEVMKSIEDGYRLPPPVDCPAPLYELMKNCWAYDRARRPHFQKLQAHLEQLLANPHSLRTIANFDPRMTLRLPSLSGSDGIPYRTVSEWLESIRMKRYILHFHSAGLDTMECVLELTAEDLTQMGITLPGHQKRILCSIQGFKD
Sequence of CAMK2D (human) (Q13557 whole entry, looked up): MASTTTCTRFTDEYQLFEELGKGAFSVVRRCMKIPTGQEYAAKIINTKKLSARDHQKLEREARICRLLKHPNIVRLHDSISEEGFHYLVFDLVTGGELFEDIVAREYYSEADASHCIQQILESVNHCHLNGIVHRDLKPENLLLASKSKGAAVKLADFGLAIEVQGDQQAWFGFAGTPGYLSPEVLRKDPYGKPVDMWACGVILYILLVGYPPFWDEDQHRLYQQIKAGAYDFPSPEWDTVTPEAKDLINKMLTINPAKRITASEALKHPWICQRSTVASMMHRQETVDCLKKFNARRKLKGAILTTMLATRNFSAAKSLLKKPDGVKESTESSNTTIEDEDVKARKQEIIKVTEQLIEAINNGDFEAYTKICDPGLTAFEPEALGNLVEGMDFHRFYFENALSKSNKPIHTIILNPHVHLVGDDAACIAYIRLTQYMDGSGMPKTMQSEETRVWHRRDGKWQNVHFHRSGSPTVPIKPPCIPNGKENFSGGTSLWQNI

With `COc1cc(C(=O)N2CCC(N3CCN(C)CC3)CC2)ccc1Nc1ncc2c(n1)N(C)c1ccccc1C(=O)N2C` the kinase still bound, per cent of control [1] was 100%, the kinase still bound, per cent of control [2] was 100% and the kinase still bound, per cent of control [3] was 100%. It also gave a kinase still bound, per cent of control [4] of 90%, a kinase still bound, per cent of control [5] of 100% and a Kd [6] of 1600 nM. It also gave a kinase still bound, per cent of control ([6]; compound 10.0 µM) of 1.2%, a kinase still bound, per cent of control [7] of 100% and a residual activity [8] of 100%. For the same molecule, the kinase still bound, per cent of control [9] was 38%, the kinase still bound, per cent of control [10] was 100% and the kinase still bound, per cent of control [11] was 65%. The kinase still bound, per cent of control [12] was 95%, the kinase still bound, per cent of control [13] was 62% and the kinase still bound, per cent of control [14] was 60%. It also gave a kinase still bound, per cent of control [15] of 100%, a kinase still bound, per cent of control [16] of 100% and a kinase still bound, per cent of control [17] of 96%. It also gave a kinase still bound, per cent of control [18] of 77%, a kinase still bound, per cent of control [19] of 96% and a kinase still bound, per cent of control [20] of 100%. The kinase still bound, per cent of control [21] was 100%, the kinase still bound, per cent of control [22] was 100% and the kinase still bound, per cent of control [23] was 99%. The kinase still bound, per cent of control [24] was 100%, the kinase still bound, per cent of control [25] was 82% and the kinase still bound, per cent of control [26] was 70%. The kinase still bound, per cent of control [27] was 72%, the Kd [28] was 1000 nM and the kinase still bound, per cent of control ([28]; compound 10.0 µM) was 7.5%. The residual activity [29] was 100%, the kinase still bound, per cent of control [30] was 99% and the kinase still bound, per cent of control [31] was 100%. For the same molecule, the kinase still bound, per cent of control [32] was 100%, the kinase still bound, per cent of control [33] was 100% and the kinase still bound, per cent of control [34] was 28%. The kinase still bound, per cent of control [35] was 86%, the kinase still bound, per cent of control [36] was 100% and the kinase still bound, per cent of control [37] was 100%. It also gave a kinase still bound, per cent of control [38] of 65%, a kinase still bound, per cent of control [39] of 91% and a kinase still bound, per cent of control [40] of 16%.
